Assays:
[1] = biological target: T1, TEC (Homo sapiens, UniProt P42680); assay: Kinase activity assay, TEC
T1 sequence (P42680 1-631): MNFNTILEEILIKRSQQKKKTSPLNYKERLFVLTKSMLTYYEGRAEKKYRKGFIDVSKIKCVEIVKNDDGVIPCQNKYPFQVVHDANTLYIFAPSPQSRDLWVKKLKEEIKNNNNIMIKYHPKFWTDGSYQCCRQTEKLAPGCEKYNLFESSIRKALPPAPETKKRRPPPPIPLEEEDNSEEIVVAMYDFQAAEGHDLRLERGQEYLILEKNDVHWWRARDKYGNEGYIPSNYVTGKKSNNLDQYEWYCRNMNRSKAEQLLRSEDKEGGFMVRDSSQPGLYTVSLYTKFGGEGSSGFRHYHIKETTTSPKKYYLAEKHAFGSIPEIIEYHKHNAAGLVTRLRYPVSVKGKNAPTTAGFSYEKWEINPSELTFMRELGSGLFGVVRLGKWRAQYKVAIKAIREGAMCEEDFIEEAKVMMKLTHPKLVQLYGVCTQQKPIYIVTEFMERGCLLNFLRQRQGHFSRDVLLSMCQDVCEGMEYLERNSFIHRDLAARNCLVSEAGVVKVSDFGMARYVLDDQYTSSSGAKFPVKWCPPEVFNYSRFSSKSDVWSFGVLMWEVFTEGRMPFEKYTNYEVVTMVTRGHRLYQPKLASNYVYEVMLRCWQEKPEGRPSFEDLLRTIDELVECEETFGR

[2] = biological target: Src (Homo sapiens, UniProt P12931); assay: Kinase activity assay, Src
[3] = biological target: Kit (Homo sapiens, UniProt P10721); assay: Kinase activity assay, Kit
[4] = biological target: Btk (Homo sapiens, UniProt Q06187); assay: Kinase activity assay, Btk
[5] = biological target: B-Raf V600E (Homo sapiens, UniProt P15056, V600E); assay: Kinase activity assay, B-Raf V600E; assay type: biochemical; conditions: read-out: activity toward kinase B-Raf V600E, IC50
[6] = biological target: B-Raf (Homo sapiens, UniProt P15056); assay: Kinase activity assay, B-Raf; assay type: biochemical; conditions: read-out: activity toward kinase B-Raf, IC50
[7] = biological target: C-Raf (Homo sapiens, UniProt P04049); assay: Kinase activity assay, C-Raf
[8] = biological target: Kdr (Homo sapiens, UniProt P35968); assay: Kinase activity assay, Kdr
[9] = biological target: Fms (Homo sapiens, UniProt P07333); assay: Kinase activity assay, Fms
[10] = biological target: T2, A-Raf (Homo sapiens, UniProt P10398); assay: Kinase activity assay, A-Raf
T2 sequence (P10398 1-606): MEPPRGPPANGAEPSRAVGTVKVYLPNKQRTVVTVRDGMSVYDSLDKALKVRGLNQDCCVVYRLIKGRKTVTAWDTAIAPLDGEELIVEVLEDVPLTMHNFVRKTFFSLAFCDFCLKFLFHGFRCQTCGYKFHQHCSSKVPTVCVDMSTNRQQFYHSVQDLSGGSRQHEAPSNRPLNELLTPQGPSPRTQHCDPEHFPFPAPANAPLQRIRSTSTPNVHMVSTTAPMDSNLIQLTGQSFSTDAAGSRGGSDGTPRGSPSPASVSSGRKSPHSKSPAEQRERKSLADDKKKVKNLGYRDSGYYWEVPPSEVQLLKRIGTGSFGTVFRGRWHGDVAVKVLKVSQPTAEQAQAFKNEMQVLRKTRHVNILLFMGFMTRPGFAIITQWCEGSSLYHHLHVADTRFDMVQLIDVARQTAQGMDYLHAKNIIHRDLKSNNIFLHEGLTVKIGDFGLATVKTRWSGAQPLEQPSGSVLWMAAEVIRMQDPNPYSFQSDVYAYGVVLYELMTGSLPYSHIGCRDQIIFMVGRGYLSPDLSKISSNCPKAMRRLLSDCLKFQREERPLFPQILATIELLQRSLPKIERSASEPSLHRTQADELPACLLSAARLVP

[11] = biological target: MAP4K4 (Homo sapiens, UniProt O95819); assay: Kinase activity assay, MAP4K4

Measured: IC50

B-Raf V600E, sequence (P15056 whole entry V600E): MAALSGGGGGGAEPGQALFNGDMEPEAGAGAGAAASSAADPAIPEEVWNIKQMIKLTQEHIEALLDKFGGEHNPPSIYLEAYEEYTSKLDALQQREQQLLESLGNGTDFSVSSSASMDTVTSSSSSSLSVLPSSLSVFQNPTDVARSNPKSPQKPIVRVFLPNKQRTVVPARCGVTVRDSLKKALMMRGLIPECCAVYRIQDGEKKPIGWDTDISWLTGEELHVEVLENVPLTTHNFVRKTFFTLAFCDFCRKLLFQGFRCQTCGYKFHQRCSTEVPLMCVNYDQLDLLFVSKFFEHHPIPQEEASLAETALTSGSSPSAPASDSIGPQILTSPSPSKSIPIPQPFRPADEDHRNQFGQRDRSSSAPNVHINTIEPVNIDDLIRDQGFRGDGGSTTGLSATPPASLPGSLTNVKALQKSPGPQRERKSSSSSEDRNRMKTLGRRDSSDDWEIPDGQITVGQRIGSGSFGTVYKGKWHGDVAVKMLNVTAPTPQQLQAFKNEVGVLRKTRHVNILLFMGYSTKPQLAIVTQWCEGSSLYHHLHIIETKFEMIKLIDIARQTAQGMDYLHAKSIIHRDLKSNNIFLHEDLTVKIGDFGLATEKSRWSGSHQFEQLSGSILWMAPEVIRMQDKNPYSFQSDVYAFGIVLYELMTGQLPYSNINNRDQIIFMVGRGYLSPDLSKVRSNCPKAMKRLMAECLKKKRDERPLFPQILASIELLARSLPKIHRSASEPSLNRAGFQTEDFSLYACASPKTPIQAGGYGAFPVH
Src, sequence (P12931 whole entry): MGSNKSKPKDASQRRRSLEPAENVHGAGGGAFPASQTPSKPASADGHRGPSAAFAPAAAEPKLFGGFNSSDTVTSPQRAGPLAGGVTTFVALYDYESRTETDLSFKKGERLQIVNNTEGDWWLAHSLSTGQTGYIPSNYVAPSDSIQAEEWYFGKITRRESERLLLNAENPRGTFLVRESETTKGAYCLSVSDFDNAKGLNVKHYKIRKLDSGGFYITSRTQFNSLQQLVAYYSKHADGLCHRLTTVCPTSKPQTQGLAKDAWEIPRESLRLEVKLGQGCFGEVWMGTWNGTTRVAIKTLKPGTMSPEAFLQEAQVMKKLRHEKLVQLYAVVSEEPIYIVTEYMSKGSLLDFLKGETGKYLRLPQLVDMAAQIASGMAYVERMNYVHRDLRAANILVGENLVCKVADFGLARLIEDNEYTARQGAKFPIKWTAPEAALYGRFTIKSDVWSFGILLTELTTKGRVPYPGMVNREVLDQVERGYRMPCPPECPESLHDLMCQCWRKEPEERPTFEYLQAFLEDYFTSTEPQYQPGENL
Kit, sequence (P10721 26-976): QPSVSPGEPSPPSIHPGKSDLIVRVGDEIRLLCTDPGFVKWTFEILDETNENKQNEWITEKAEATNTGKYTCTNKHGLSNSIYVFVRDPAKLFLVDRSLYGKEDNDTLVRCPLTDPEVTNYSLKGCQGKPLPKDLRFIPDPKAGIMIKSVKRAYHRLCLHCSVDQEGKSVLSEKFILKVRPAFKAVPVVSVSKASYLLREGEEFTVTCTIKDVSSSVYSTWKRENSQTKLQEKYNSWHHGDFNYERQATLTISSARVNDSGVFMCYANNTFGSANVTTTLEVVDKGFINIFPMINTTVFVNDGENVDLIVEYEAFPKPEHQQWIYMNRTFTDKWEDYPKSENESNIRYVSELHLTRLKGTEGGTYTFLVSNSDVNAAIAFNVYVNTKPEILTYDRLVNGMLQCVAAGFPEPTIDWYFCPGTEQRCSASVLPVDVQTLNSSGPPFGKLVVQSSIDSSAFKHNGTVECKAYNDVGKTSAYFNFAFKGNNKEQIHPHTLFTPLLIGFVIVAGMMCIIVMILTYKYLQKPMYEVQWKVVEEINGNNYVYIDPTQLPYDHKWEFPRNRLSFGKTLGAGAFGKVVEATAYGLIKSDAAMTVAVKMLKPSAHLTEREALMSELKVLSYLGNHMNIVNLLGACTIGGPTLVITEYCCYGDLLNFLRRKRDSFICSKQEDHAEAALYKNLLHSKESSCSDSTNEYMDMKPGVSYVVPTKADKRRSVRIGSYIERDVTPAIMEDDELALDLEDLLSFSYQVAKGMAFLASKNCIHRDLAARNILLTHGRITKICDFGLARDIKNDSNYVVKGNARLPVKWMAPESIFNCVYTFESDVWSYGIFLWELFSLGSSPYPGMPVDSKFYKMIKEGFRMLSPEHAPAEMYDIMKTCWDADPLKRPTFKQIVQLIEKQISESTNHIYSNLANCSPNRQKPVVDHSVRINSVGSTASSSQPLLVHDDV
Kdr, sequence (P35968 20-1356): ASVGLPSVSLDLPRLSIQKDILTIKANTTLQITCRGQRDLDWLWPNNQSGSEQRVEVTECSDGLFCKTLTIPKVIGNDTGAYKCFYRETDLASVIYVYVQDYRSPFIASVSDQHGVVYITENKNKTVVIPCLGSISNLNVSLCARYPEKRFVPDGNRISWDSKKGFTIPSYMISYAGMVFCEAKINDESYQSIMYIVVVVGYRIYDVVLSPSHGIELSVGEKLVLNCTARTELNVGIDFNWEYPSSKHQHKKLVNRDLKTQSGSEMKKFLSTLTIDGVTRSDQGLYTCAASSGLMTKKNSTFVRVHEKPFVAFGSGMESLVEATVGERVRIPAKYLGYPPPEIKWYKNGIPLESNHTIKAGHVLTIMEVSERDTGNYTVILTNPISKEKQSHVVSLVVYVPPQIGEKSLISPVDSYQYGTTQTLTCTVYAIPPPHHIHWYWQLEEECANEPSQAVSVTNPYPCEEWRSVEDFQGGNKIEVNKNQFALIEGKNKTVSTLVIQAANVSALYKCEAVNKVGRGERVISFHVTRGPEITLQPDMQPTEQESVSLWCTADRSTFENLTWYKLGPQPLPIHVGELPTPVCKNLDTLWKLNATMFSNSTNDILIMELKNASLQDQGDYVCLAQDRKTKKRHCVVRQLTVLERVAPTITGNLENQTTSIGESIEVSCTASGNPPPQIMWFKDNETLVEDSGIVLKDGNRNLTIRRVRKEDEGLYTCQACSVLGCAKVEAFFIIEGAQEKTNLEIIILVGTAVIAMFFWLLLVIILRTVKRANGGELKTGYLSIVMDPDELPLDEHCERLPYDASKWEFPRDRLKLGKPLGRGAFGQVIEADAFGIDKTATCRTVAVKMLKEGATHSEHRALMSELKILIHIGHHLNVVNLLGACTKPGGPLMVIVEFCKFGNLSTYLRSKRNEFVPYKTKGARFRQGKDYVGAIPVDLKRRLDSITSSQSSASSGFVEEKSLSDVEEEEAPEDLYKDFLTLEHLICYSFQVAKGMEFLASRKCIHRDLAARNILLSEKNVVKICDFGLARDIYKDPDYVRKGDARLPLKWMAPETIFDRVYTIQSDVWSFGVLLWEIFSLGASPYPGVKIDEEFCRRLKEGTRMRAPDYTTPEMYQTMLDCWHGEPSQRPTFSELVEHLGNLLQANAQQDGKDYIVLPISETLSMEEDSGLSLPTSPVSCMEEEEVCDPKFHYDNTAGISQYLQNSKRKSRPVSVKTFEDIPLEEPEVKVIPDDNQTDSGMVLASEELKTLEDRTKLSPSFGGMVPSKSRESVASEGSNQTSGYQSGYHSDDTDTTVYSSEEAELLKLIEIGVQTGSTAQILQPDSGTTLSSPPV
Fms, sequence (P07333 20-972): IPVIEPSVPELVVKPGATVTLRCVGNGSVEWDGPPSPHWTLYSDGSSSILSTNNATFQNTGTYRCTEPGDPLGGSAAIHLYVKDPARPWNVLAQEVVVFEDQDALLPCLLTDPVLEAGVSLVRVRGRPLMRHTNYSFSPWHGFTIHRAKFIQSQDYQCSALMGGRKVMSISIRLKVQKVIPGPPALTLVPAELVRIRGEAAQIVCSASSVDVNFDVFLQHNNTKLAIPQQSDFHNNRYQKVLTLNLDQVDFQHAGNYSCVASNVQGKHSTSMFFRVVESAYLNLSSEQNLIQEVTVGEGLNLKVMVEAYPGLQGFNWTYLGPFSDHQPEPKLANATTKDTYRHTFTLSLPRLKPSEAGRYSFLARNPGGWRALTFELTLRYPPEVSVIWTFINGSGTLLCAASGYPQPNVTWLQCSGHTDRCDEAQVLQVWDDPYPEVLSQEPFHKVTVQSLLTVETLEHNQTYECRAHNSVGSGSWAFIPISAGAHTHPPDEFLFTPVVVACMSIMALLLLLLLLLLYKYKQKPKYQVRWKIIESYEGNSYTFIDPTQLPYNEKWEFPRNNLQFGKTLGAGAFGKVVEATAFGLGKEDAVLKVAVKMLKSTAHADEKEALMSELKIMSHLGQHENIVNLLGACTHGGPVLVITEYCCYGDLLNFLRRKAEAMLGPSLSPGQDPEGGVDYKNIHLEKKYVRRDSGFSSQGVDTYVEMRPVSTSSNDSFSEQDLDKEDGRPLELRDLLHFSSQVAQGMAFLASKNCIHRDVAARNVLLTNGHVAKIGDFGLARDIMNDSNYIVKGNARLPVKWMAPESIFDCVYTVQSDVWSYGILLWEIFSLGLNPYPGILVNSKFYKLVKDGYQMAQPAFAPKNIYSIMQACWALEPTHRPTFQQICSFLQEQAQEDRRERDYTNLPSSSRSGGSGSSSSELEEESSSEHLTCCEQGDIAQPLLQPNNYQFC
B-Raf, sequence (P15056 whole entry): as the sequence (P15056 whole entry V600E) above, with E600V counted along it

N#Cc1cnc2[nH]cc(C(=O)c3cccc(NS(=O)(=O)c4ccccc4F)c3F)c2c1 [P-2051, N-[3-(5-Cyano-1H-pyrrolo[2,3-b]pyridine-3-carbonyl)-2-fluoro-phenyl]-2-fluoro-benzenesulfonamide]
not listed: [9] | [10] | [11]
≤ 10 µM: all other assays above

N#Cc1cnc2[nH]cc(C(=O)c3cccc(NS(=O)(=O)c4cc(F)ccc4F)c3F)c2c1 [P-2052, N-[3-(5-Cyano-1H-pyrrolo[2,3-b]pyridine-3-carbonyl)-2-fluoro-phenyl]-2,5-difluoro-benzenesulfonamide]
not listed: [9] | [10] | [11]
≤ 10 µM: all other assays above

N#Cc1cnc2[nH]cc(C(=O)c3cccc(NS(=O)(=O)c4cccc(F)c4)c3F)c2c1 [P-2053, N-[3-(5-Cyano-1H-pyrrolo[2,3-b]pyridine-3-carbonyl)-2-fluoro-phenyl]-3-fluoro-benzenesulfonamide]
≤ 10 µM: [1] | [2] | [4] | [5] | [6] | [7]

N#Cc1cnc2[nH]cc(C(=O)c3cccc(NS(=O)(=O)c4c(F)cccc4F)c3F)c2c1 [P-2054, N-[3-(5-Cyano-1H-pyrrolo[2,3-b]pyridine-3-carbonyl)-2-fluoro-phenyl]-2,6-difluoro-benzenesulfonamide]
not listed: [9] | [10] | [11]
≤ 10 µM: all other assays above

N#Cc1cnc2[nH]cc(C(=O)c3cccc(NS(=O)(=O)c4ccccn4)c3F)c2c1 [P-2087, Pyridine-2-sulfonic acid [3-(5-cyano-1H-pyrrolo[2,3-b]pyridine-3-carbonyl)-2-fluoro-phenyl]-amide]
≤ 10 µM: [1] | [2] | [4] | [5] | [6] | [7]

O=C(c1cc(NS(=O)(=O)c2cccc(F)c2)ccc1F)c1c[nH]c2ncccc12 [P-2120, 3-Fluoro-N-[4-fluoro-3-(1H-pyrrolo[2,3-b]pyridine-3-carbonyl)-phenyl]-benzenesulfonamide]
≤ 10 µM: [1] | [3] | [9] | [4] | [5] | [8]

Cn1cc(-c2cnc3[nH]cc(C(=O)c4cccc(NS(=O)(=O)c5ccc(Cl)cc5)c4)c3c2)cn1 [P-2129, 4-Chloro-N-{3-[5-(1-methyl-1H-pyrazol-4-yl)-1H-pyrrolo[2,3-b]pyridine-3-carbonyl]-phenyl}-benzenesulfonamide]
≤ 10 µM: [1] | [3] | [9] | [4] | [5] | [8]

CCCS(=O)(=O)Nc1ccc(F)c(C(=O)c2c[nH]c3ncc(-c4ccc(NS(C)(=O)=O)cc4)cc23)c1F [P-2165, Propane-1-sulfonic acid {2,4-difluoro-3-[5-(4-methanesulfonylamino-phenyl)-1H-pyrrolo[2,3-b]pyridine-3-carbonyl]-phenyl}-amide]
not listed: [1] | [11]
≤ 10 µM: all other assays above

CCCS(=O)(=O)Nc1ccc(F)c(C(=O)c2c[nH]c3ncc(-c4ccc(OCCCN5CCCC5)nc4)cc23)c1F [P-2235, Propane-1-sulfonic acid (2,4-difluoro-3-{5-[6-(3-pyrrolidin-1-yl-propoxy)-pyridin-3-yl]-1H-pyrrolo[2,3-b]pyridine-3-carbonyl}-phenyl)-amide]
not listed: [1]
≤ 10 µM: all other assays above

COc1ncc(-c2cnc3[nH]cc(C(=O)c4c(F)ccc(NS(=O)(=O)N5CCCC5)c4F)c3c2)cn1 [P-2400]
not listed: [9] | [10] | [11]
≤ 10 µM: all other assays above

N#Cc1cnc2[nH]cc(C(=O)c3cccc(NS(=O)(=O)CC(F)(F)F)c3F)c2c1 [P-2414, 2,2,2-Trifluoro-ethanesulfonic acid [3-(5-cyano-1H-pyrrolo[2,3-b]pyridine-3-carbonyl)-2-fluoro-phenyl]-amide]
≤ 10 µM: [1] | [2] | [4] | [5] | [6] | [7]

N#Cc1cnc2[nH]cc(C(=O)c3cccc(NS(=O)(=O)N4CCCC4)c3F)c2c1 [P-2420, Pyrrolidine-1-sulfonic acid [3-(5-cyano-1H-pyrrolo[2,3-b]pyridine-3-carbonyl)-2-fluoro-phenyl]-amide]
≤ 10 µM: [10] | [4] | [5] | [6] | [7]

O=C(c1cc(NS(=O)(=O)N2CCCCC2)ccc1F)c1c[nH]c2ncccc12 [P-2440, Piperidine-1-sulfonic acid [4-fluoro-3-(1H-pyrrolo[2,3-b]pyridine-3-carbonyl)-phenyl]-amide]
≤ 10 µM: [1] | [9] | [4]

O=C(c1cccc(NS(=O)(=O)N2CCCCC2)c1)c1c[nH]c2ncc(Cl)cc12 [P-2471, Piperidine-1-sulfonic acid [3-(5-chloro-1H-pyrrolo[2,3-b]pyridine-3-carbonyl)-phenyl]-amide]
≤ 10 µM: [1] | [3] | [9] | [4] | [8]
